Experimental data as given in patent US6689883B1, “Substituted pyridines and pyridazines with angiogenesis inhibiting activity” (Bayer Pharmaceuticals Corporation, priority 1999, dated 2004).

Tests used:
[1] = target: T1, cytosolic kinase domain of KDR kinase (Homo sapiens, UniProt P35968); assay: KDR Assay (ELISA, poly(Glu4;Tyr1) phosphorylation); type: biochemical; details: 3.3 μM ATP, 60 minutes at room temperature
T1 construct: The cytosolic kinase domain of KDR kinase was expressed as a 6His fusion protein in Sf9 insect cells; 6His; made in house; host or cells: Sf9 insect cells
T1 sequence (P35968 834-1162 limits assumed): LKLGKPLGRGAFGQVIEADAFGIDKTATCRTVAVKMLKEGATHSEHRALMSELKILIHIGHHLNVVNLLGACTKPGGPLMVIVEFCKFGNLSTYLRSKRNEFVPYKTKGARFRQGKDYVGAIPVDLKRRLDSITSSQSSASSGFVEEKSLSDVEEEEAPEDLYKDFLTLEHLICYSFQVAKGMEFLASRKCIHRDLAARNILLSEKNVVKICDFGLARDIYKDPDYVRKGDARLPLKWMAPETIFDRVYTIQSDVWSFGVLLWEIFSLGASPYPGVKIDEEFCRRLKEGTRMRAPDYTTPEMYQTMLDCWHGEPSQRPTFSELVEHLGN
Experimental: The cytosolic kinase domain of KDR kinase was expressed as a 6His fusion protein in Sf9 insect cells. The KDR kinase domain fusion protein was purified over a Ni++ chelating column. Ninety-six well ELISA plates were coated with 5 μg poly(Glu4;Tyr1) (Sigma Chemical Co., St Louis, Mo.) in 100 μl HEPES buffer (20 mM HEPES, pH 7.5, 150 mM NaCl, 0.02% Thimerosal) at 4° overnight. Before use, the plate was washed with HEPES, NaCl buffer and the plates were blocked with 1% BSA, 0.1% Tween 20 in HEPES, NaCl buffer.
Test compounds were serially diluted in 100% DMSO from 4 mM to 0.12 μM in half-log dilutions. These dilutions were further diluted twenty fold in H2O to obtain compound solutions in 5% DMSO. Following loading of the assay plate with 85 μl of assay buffer (20 mM HEPES, pH 7.5, 100 mM KCl, 10 mM MgCl2, 3 mM MnCl2, 0.05% glycerol, 0.005% Triton X-100, 1 mM-mercaptoethanol, with or without 3.3 μM ATP), 5 μl of the diluted compounds were added to a final assay volume of 100 μl. Final concentrations were between 10 μM, and 0.3 nM in 0.25% DMSO. The assay was initiated by the addition of 10 μl (30 ng) of KDR kinase domain.
The assay was incubated with test compound or vehicle alone with gentle agitation at room temperature for 60 minutes. The wells were washed and phosphotyrosines (PY) were probed with an anti-phosphotyrosine (PY), mAb clone 4G10 (Upstate Biotechnology, Lake Placid, N.Y.). PY/anti-PY complexes were detected with an anti-mouse IgG/HRP conjugate (Amersham International plc, Buckinghamshire, England). Phosphotyrosine was quantitated by incubating with 100 μl 3,3′,5,5′tetramethylbenzidine solution (Kirkegaard and Perry, TMB Microwell 1 Component peroxidase substrate). Color development was arrested by the addition of 100 μl 1% HCl-based stop solution (Kirkegaard and Perry, TMB 1 Component Stop Solution).
Optical densities were determined spectrophotometrically at 450 nm in a 96-well plate reader, SpectraMax 250 (Molecular Devices). Background (no ATP in assay) OD values were subtracted from all ODs and the percent inhibition was calculated according to the equation: [formula]

[2] = target: T2, full length KDR receptor in NIH3T3 cells (Homo sapiens, UniProt P35968); assay: Cell Mechanistic Assay-Inhibition of 3T3 KDR Phosphorylation; type: cell-based; details: NIH3T3 cells expressing KDR, VEGF 30 ng/ml stimulation
T2 construct: NIH3T3 cells expressing the full length KDR receptor were grown in DMEM; expressed in transfected cells; host or cells: NIH3T3 cells (G418 selection)
T2 sequence (P35968 20-1356): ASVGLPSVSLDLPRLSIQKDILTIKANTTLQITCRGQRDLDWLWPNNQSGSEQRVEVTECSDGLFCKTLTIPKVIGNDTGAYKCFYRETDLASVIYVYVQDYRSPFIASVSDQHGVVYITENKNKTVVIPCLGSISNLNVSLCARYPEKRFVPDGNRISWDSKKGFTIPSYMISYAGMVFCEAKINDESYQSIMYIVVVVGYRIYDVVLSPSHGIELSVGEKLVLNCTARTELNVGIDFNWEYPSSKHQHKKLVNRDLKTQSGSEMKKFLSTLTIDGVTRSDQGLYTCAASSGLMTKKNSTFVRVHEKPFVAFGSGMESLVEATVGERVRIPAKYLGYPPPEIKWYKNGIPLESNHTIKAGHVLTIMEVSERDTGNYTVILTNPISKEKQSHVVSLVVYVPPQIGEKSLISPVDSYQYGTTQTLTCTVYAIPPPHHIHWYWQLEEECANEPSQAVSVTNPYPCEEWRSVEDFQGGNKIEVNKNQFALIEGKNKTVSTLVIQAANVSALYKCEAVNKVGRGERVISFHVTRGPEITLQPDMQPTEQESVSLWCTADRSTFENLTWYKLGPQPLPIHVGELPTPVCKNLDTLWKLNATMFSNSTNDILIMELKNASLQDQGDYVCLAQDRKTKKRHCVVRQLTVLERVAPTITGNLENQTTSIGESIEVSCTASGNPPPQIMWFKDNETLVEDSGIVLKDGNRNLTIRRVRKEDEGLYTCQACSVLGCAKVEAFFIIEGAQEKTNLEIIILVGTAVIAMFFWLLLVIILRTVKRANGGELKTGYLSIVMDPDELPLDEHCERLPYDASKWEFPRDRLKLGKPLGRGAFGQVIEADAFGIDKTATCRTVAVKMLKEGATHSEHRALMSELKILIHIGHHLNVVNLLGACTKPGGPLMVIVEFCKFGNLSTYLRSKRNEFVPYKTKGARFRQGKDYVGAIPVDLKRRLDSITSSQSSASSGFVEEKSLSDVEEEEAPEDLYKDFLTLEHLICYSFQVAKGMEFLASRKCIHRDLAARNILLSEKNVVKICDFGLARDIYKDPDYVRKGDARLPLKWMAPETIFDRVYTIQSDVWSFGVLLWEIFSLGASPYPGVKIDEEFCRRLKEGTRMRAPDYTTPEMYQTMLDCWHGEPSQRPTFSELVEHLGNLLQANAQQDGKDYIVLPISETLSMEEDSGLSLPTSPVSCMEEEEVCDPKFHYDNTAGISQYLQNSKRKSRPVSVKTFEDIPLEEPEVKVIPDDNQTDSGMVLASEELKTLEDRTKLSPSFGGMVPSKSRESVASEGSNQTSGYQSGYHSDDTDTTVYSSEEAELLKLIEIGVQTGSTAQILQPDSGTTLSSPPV
Experimental: NIH3T3 cells expressing the full length KDR receptor were grown in DMEM (Life Technologies, Inc., Grand Island, N.Y.) supplemented with 10% newborn calf serum, low glucose, 25 mM/L sodium pyruvate, pyridoxine hydrochloride and 0.2 mg/ml of G418 (Life Technologies Inc., Grand Island, N.Y.). The cells were maintained in collagen I-coated T75 flasks (Becton Dickinson Labware, Bedford, Mass.) in a humidified 5% CO2 atmosphere at 37° C.
Fifteen thousand cells were plated into each well of a collagen I-coated 96-well plate in the DMEM growth medium. Six hours later, the cells were washed and the medium was replaced with DMEM without serum. After overnight culture to quiesce the cells, the medium was replaced by Dulbecco's phosphate-buffered saline (Life Technologies Inc., Grand Island, N.Y.) with 0.1% bovine albumin (Sigma Chemical Co., St Louis, Mo.). After adding various concentrations (0-300 nM) of test compounds to the cells in 1% final concentration of DMSO, the cells were incubated at room temperature for 30 minutes. The cells were then treated with VEGF (30 ng/ml) for 10 minutes at room temperature. Following VEGF stimulation, the buffer was removed and the cells were lysed by addition of 150 μl of extraction buffer (50 mM Tris, pH 7.8, supplemented with 10% glycerol, 50 mM BGP, 2 mM EDTA, 10 mM NaF, 0.5 mM NaVO4, and 0.3% TX-100) at 4° C. for 30 minutes.
To assess receptor phosphorylation, 100 microliters of each cell lysate was added to the wells of an ELISA plate precoated with 300 ng of antibody C20 (Santa Cruz Biotechnology, Inc., Santa Cruz, Calif.). Following a 60-minute incubation, the plate was washed and bound KDR was probed for phosphotyrosine using an anti-phosphotyrosine mAb clone 4G10 (Upstate Biotechnology, Lake Placid, N.Y.). The plate was washed and wells were incubated with anti-mouse IgG/HRP conjugate (Amersham International plc, Buckinghamshire, England) for 60 minutes. Wells were washed and phosphotyrosine was quantitated by addition of 100 μl per well of 3,3′,5,5′tetramethylbenzidine (Kirkegaard and Perry, TMB Microwell 1 Component peroxidase substrate) solution. Color development was arrested by the addition of 100 μl 1% HCl based stop solution (Kirkegaard and Perry, TMB 1 Component Stop Solution).
Optical densities (OD) were determined spectrophotometrically at 450 nm in a 96-well plate reader (SpectraMax 250, Molecular Devices). Background (no VEGF added) OD values were subtracted from all ODs and percent inhibition was calculated according to the equation: [formula]
IC50s were determined on some of the exemplary materials with a least squares analysis program using compound concentration versus percent inhibition. Compounds that have IC50≦20 nM in this assay include those of Examples 2, 6, 10, 11, 14, 23, 96, 101, 102, 103, 104, 105. Compounds that have IC50 values between 20 nM and 50 nM include those of examples 1, 4, 8, 9, 12, 13, 17, 24, 93, 98. Compounds that have IC50 values between 50 nM and 400 nM include those of examples 97, 99, and 100.

Row | Compound | IC50 [1] | IC50 [2] | melting point
1 | c1ccc2c(Nc3ccc4c(c3)CCC4)ncc(Cc3ccncc3)c2c1 [Example 6, 1-(indan-5-ylamino)-4-(4-pyridylmethyl)-isoquinoline] | ≤ 0.1 µM | ≤ 0.02 µM | 
2 | Clc1ccc(Nc2nnc(Nc3ccc4ncsc4c3)c3ccccc23)cc1 [Example 105] | ≤ 0.1 µM | ≤ 0.02 µM | 
3 | Clc1ccc(Nc2nnc(Nc3ccc4nn[nH]c4c3)c3ccccc23)cc1 [Example 96] | ≤ 0.1 µM | ≤ 0.02 µM | 
4 | Clc1ccc(Nc2nnc(OCc3ccncc3)c3occc23)cc1 [Example 9, 4-(4-chlorophenylamino)-7-(4-pyridylmethoxy)furo[2,3-d]pyridazine] | ≤ 0.1 µM | 0.02 to 0.05 µM | 
5 | CNC(=O)c1cc(COc2nnc(Nc3ccc(Cl)cc3)c3ccsc23)ccn1 [Example 11, 4-(4-chlorophenylamino)-7-(2-methylaminocarbonyl-4-pyridylmethoxy)thieno-[2,3-d]pyridazine] | ≤ 0.1 µM | ≤ 0.02 µM | 
6 | NC(=O)c1cc(COc2nnc(Nc3ccc(Cl)cc3)c3ccsc23)ccn1 [Example 10, 4-(4-chlorophenylamino)-7-(2-aminocarbonyl-4-pyridylmethoxy)thieno-[2,3-d]pyridazine] | ≤ 0.1 µM | ≤ 0.02 µM | 233 °C
7 | Clc1ccc(Nc2nnc(OCc3ccncc3)c3sccc23)cc1 [Example 8, 4-(4-chlorophenylamino)-7-(4-pyridylmethoxy)thieno-[2,3-d]pyridazine] | ≤ 0.1 µM |  | 203 to 205 °C (dec.)
8 | Clc1ccc(Nc2nnc(Nc3ccc4ncsc4c3)c3sccc23)cc1 [Example 23] |  | ≤ 0.02 µM | 
9 | CNC(=O)c1cc(COc2nnc(Nc3ccc(Cl)cc3)c3ccoc23)ccn1 [Example 14, 4-(4-chlorophenylamino)-7-(2-methylaminocarbonyl-4-pyridylmethoxy)furo-[2,3-d]pyridazine] | ≤ 0.1 µM | ≤ 0.02 µM | 
10 | Brc1cccc(Nc2nnc(Nc3ccc4ncsc4c3)c3ccccc23)c1 [Example 101] | ≤ 0.1 µM | ≤ 0.02 µM | 
11 | COc1cccc(Nc2nnc(Nc3ccc4ncsc4c3)c3ccccc23)c1 [Example 103] | ≤ 0.1 µM | ≤ 0.02 µM | 
12 | c1ccc2c(Nc3ccc4c(c3)CCC4)ncc(Sc3ccncc3)c2c1 [Example 2, 1-(indan-5-ylamino)-4-(4-pyridylthio)isoquinoline] | ≤ 0.1 µM | ≤ 0.02 µM | 
13 | CC(C)c1ccc(Nc2nnc(Nc3ccc4ncsc4c3)c3ccccc23)cc1 [Example 102] | ≤ 0.1 µM | ≤ 0.02 µM | 
